Source: patent US6337316B1, “Pharmaceutical compositions thereof, and methods of using same” (Applied Research Systems ARS Holding N.V., priority 1997, dated 2002)
One block for each molecule: values may come before it. Bridge positions count the residues as written; N and C are the ends. Ends that are not written are not given here.

Key:
[1] = system: lymphocyte proliferation in the human MLR; format: cell-based; conditions: for Human MLR (ability to inhibit lymphocyte proliferation, cpm): peptide 12.5 to 100 μM, assays of 1/24, 1/31, 3/6, 4/17, 5/2, one symbol per assay; for effect on the MLR, retest: two MLRs, peptide by itself, concentrations up to 200 μM
Experimental: Whole blood from donors was obtained from Interstate Blood Bank, Memphis, Tenn. Blood specimens were handled in a biosafety level 2 containment facility as recommended for potentially infectious blood specimens in the CDC/NIH manual Biosafety in Microbiological and Biomedical Laboratories; 3rd edition, 1993, page 10. Peripheral blood mononuclear cells (PBMC) were separated from red blood cells and granulocytes by ficoll-hypaque purification. Whole peripheral blood was diluted 1:2 in PBS and 30 ml was overlayed onto 15 ml of ficoll-hypaque in 50 ml polypropylene tubes. The tubes were spun at 400×g for 30 min at 25° C. Following centrifugation, the interface between the upper plasma layer and the lower ficoll layer was collected, cells washed in RPMI-1640 2×, and viable counts determined using trypan blue. Cells to be used as responders in the assay were stored on ice until mitomycin C treatment of stimulator cells was completed.
PBMC, isolated as described above, to be used as stimulators in the assay were adjusted to 2-4×10^6 cells/ml in complete medium (RPMI 1640 containing 10% heat-inactivated human AB serum, 2 mM glutamine, 50 μM 2-mercaptoethanol and 100 U/ml penicillin-100 μg/ml streptomycin), and treated with mitomycin C (25 μg/ml) for 30 min in a 37° C. water bath. Following treatment, cells were washed with S volumes of complete medium 3×, and viable counts determine using trypan blue. To set up autologous stimulation controls some responder cells were also treated with mitomycin C as mentioned above.
Purified CTLA-4Ig fusion protein was produced, as described in Steurer et al. 1995, from a NS-1 cell line kindly donated by Dr. T. Strom (Beth Israel Hospital, Boston, Mass.) as a 1 mg/ml solution in sterile PBS. The protein was stored frozen at −80° C. Upon thawing, the aliquot was stored at 4° C. Purified peptides were lyophilized according to known procedures. Peptides were reconstituted in sterile PBS, pH 7.4 at 2 mM concentration, aliquoted in microfuge cubes and stored frozen at −20° C. For the assay, an aliquot of the peptide was thawed and diluted to 200 μM in complete medium.
For the one-way allogeneic mixed lymphocyte response (MLR) assay, responder cells were plated at 10^6 cells/well, and stimulator cells at 5×10^4 cells/well in 96-well round bottom plates. Cells were incubated with serial dilutions of the anti-CD4 Ab Leu 3A (1 μg/ml-0.06 μg/ml) in triplicate, or an isotype-matched control Ab. Cyclosporin A at 1 μg/ml was used as an additional control.
CTLA-4 Ig was serially diluted an.4 tested from 10 μg/ml to 0.15 μg/ml. Peptides were tested either directly or in the presence of a constant spiked-in dose of CTLA-4 Ig at 0.5 μg/ml. The plates were incubated at 37° C. in a humidified 5% CO2 atmosphere for 7 days.
Proliferation of the cells was determined by pulsing the wells with ^3H-Tdr (1 μCi/well) for the last 18 h of the assay. Plates were harvested using a Tomtec -late harvester and the counts incorporated determined using a Wallac microbetaplate plus reader.
A total of 34 peptides were tested for inhibition of lymphocyte proliferation in the human MLR. Each peptide was tested in a MLR at doses ranging from 12.5 to 100 μM. The activity of each peptide was identified by assigning a + and − tone peptide depending on its ability to inhibit lymphocyte proliferation in the MLR (cpms).

[2] = system: binding of CTLA-4Ig to B7 on Cess B cells; experiment: CTLA-4Ig/B7 binding assay on Cess B cells by FACS; design: key to Binding Assay (effect on CTLA-4Ig binding to Cess B cells): −: no change in binding; +: a minor change of <10% in binding; ++: a change of >20% in binding; conditions: for Binding Assay (effect on CTLA-4Ig binding to Cess B cells): FACS, assays of 3/24, 3/25, 4/5, 4/25, one symbol per assay; for effect on CTLA-4Ig binding, retest in the Cess B binding assay: retest of positives from primary screening
Experimental: +++ was assigned if the peptide tested gave >50% change in cpm in a dose dependent fashion. In addition to the MLR, these 34 peptides were also evaluated in a CTLA-4Ig/B7 binding assay in which the ability of these peptides to affect the binding of CTLA-4Ig to B7 on Cess B cells was examined by FACS analysis.
As with the MLR, a + or − was assigned to each peptide depending on its ability to effect CTLA-4Ig binding to Cess B cells; where − represents no change in binding, + represents a minor change of <10% in binding, and a ++ represents a change of >20% in binding.

B7 on Cess B cells [3] = experiment: FACS competition with CTLA-4Ig on Cess B cells; one grade per run; - no change, + <10% change, ++ >20% change
B7 on Cess B cells [4] = experiment: cell-based or functional assay

Molecule: KCSYNLFSREFC (not fully specified (bridges); cysteine pairing not given here) [AT 106.1]
Human MLR (ability to inhibit lymphocyte proliferation, cpm) [1]: ++, +, +, +/−
effect on the MLR, retest [1]: none of these peptide by themselves had any consistent effect
Binding Assay (effect on CTLA-4Ig binding to Cess B cells) [2]: ++, ++
effect on CTLA-4Ig binding, retest in the Cess B binding assay [2]: no effect

Molecule: ADSQVTEV [AT 127.1]
Human MLR (ability to inhibit lymphocyte proliferation, cpm) [1]: −, −
Binding Assay (effect on CTLA-4Ig binding to Cess B cells) [2]: +/−, +/−

Molecule: CSSGNQVC (disulfide 1-8 (inferred)) [AT 132.1]
Human MLR (ability to inhibit lymphocyte proliferation, cpm) [1]: +, −, −
Binding Assay (effect on CTLA-4Ig binding to Cess B cells) [2]: +, −

Molecule: CKIEVMYPPPYC (disulfide 1-12 (inferred)) [AT 113.1]
Human MLR (ability to inhibit lymphocyte proliferation, cpm) [1]: − (all concentrations of peptide tested gave <15% change in cpm)
Binding Assay (effect on CTLA-4Ig binding to Cess B cells) [2]: −, −

Molecule: RKCLAYPPPYYCHH (not fully specified (bridges); cysteine pairing not given here) [AT 200.1]
inhibition of the MLR, in words ([1]; control and linear peptides compared with AT 199): did not inhibit any of the MLRs as much as AT 199
Human MLR (ability to inhibit lymphocyte proliferation, cpm) [1]: −, −, −
Binding Assay (effect on CTLA-4Ig binding to Cess B cells) [2]: −, −, −

Molecule: CMYPPPYGKC (disulfide 1-10 (inferred)) [AT 110.1]
Human MLR (ability to inhibit lymphocyte proliferation, cpm) [1]: − (all concentrations of peptide tested gave <15% change in cpm)
Binding Assay (effect on CTLA-4Ig binding to Cess B cells) [2]: −, −

Molecule: HVEQPA [AT 137.1]
Human MLR (ability to inhibit lymphocyte proliferation, cpm) [1]: −, +
Binding Assay (effect on CTLA-4Ig binding to Cess B cells) [2]: +/−, −

Molecule: CMYPPQYGKC (disulfide 1-10 (inferred)) [AT 111.1]
Human MLR (ability to inhibit lymphocyte proliferation, cpm) [1]: −, +/−
Binding Assay (effect on CTLA-4Ig binding to Cess B cells) [2]: −

Molecule: LDSAVEV [AT 116.1]
Human MLR (ability to inhibit lymphocyte proliferation, cpm) [1]: − (all concentrations of peptide tested gave <15% change in cpm)
Binding Assay (effect on CTLA-4Ig binding to Cess B cells) [2]: −

Molecule: CKGLDSAVEC (disulfide 1-10 (inferred)) [AT 108.1]
Human MLR (ability to inhibit lymphocyte proliferation, cpm) [1]: −, −, −
Binding Assay (effect on CTLA-4Ig binding to Cess B cells) [2]: −

Molecule: KILVKQS [AT 119.1]
Human MLR (ability to inhibit lymphocyte proliferation, cpm) [1]: −, +/−
Binding Assay (effect on CTLA-4Ig binding to Cess B cells) [2]: −

Molecule: CMYPPPYYKAKC (disulfide 1-12 (inferred)) [AT 130.1]
Human MLR (ability to inhibit lymphocyte proliferation, cpm) [1]: −, −
Binding Assay (effect on CTLA-4Ig binding to Cess B cells) [2]: −, −

Molecule: HVEQPA-OH [AT 125.1]
Human MLR (ability to inhibit lymphocyte proliferation, cpm) [1]: −, −
Binding Assay (effect on CTLA-4Ig binding to Cess B cells) [2]: −, +

Molecule: LDSAVEV-OH [AT 117.1]
Human MLR (ability to inhibit lymphocyte proliferation, cpm) [1]: − (all concentrations of peptide tested gave <15% change in cpm)
Binding Assay (effect on CTLA-4Ig binding to Cess B cells) [2]: + (a minor change of <10% in binding)

Molecule: CSSPNQVC (disulfide 1-8 (inferred)) [AT 133.1]
Human MLR (ability to inhibit lymphocyte proliferation, cpm) [1]: ++, +
effect on the MLR, retest [1]: none of these peptide by themselves had any consistent effect
Binding Assay (effect on CTLA-4Ig binding to Cess B cells) [2]: ++, −
effect on CTLA-4Ig binding, retest in the Cess B binding assay [2]: no effect

Molecule: CRQADSQVTEC (disulfide 1-11 (inferred)) [AT 128.1]
Human MLR (ability to inhibit lymphocyte proliferation, cpm) [1]: ++, −
effect on the MLR, retest [1]: none of these peptide by themselves had any consistent effect
Binding Assay (effect on CTLA-4Ig binding to Cess B cells) [2]: + (a minor change of <10% in binding)
effect on CTLA-4Ig binding, retest in the Cess B binding assay [2]: no effect

percent change in CTLA-4Ig binding to B7 on Cess B cells (FACS) (B7 on Cess B cells [3]): > 20%
B1: AT 135.1 (peptide)
peptide: CSPNQC
modifications: disulfide 1-6 (inferred); not fully specified (C-terminus)

apparent IC50 of inhibition in the MLR (B7 on Cess B cells [4]): 50 to 100 µM
inhibition of human MLR by batch AT 199.2A at 100 µM, one MLR (B7 on Cess B cells [4]): 50%
inhibition of human MLR by batch AT 199.2A, another MLR (B7 on Cess B cells [4]): 25%
inhibition of human MLR by batch AT 199.3 at 100 µM, one MLR (B7 on Cess B cells [4]): 30%
inhibition of lymphocyte proliferation in a human MLR (AT 199, doses up to 100 µM) (B7 on Cess B cells [4]): 70%
inhibition of lymphocyte proliferation in a second human MLR (AT 199, doses up to 100 µM) (B7 on Cess B cells [4]): 30%
B2: AT 199.1 (peptide)
peptide: RKCLMYPPPYYCHH
modifications: disulfide 3-12; not fully specified (C-terminus)

percent change in CTLA-4Ig binding to B7 on Cess B cells (FACS) (B7 on Cess B cells [3]): < 10%
B3: AT 128.1 (peptide)
peptide: CRQADSQVTEC
modifications: disulfide 1-11 (inferred); not fully specified (C-terminus)

percent change in CTLA-4Ig binding to B7 on Cess B cells (FACS) (B7 on Cess B cells [3]): > 20%
B4: AT 129.1 (peptide)
peptide: CMYPPPYYRGGKC
modifications: disulfide 1-13 (inferred); not fully specified (C-terminus)

percent change in CTLA-4Ig binding to B7 on Cess B cells (FACS) (B7 on Cess B cells [3]): < 10%
B5: AT 117.1 (peptide)
peptide: LDSAVEV-OH
